Measured values as given in patent US20230183592A1, “[…] ORGANO[…] AS NON-[…]-WEAR AGENTS” (priority 2020, published 2023).
Like-named read-outs stand apart in the source and are kept apart here.

Columns and labels:
[1] = sum of five 0/1 risk factors, 0 (lack of risk) to 5 (very high multiple risk)
Text: The last column corresponds to a risk level score for the safety of these molecules for use in oils such as turbine oils and their alleged cabin toxicity. […] A 0 value indicates a lack of risk, and a 5 value indicates a very high multiple risk. For each risk, a factor 0 or 1 is assigned based on whether the value is above or below a threshold.

[2] = European Chemicals Agency website; cited from earlier work
[3] = molecular target: T1, human erythrocyte AChE (hAChE) (Homo sapiens, UniProt P22303); test: biochemical; format: biochemical
T1 construct: The human erythrocyte AChE (hAChE, aqueous buffer solution); purchased Sigma Aldrich; host or cells: human erythrocytes (natural source)
Method: (§1) In the extent that the toxic activity of TCP especially involves its action on cholinesterases, the effect of the compounds used according to the invention, as well as comparative compounds, on two cholinesterases was studied. The required concentration values of each compound to inhibit 50% of the activity of two cholinesterases were measured.
(§2) The acetylthiocholine and butyrylthiocholine iodide, and 5,5-dithiobis (2-nitrobenzoic) acid (DTNB) were purchased from Sigma Aldrich (Steinheim, Germany).
(§3) In the procedure, 100 μL of 0.3 mM DTNB dissolved in phosphate buffer, pH 7.4, were added in 96-well plates, followed by 50 μL solution of the test compound and 50 μL enzyme (final 0.05 U). After 5 minutes of pre-incubation at 25° C., the reaction was initiated by injecting 50 μL of 0.1 mM acetyl or butyryl thiocholine iodide solution. The acetyl or butyryl thiocholine hydrolysis was followed by the formation of yellow 5-thio 2-nitrobenzoate anion as the product of the reaction of DTNB with the thiocholine released by the enzymatic hydrolysis of the acetyl or butyryl thiocholine, at a wavelength of 412 nm, using a microplate reader (Synergy 2, Biotek, Colmar, France). The compounds to be tested were dissolved to 5×10^−3M in analytical grade DMSO. Donepezil or tacrine were used as reference standards. The absorption increase rate at 412 nm was determined 4 minutes after the addition of the acetyl or butyryl thiocholine iodide solution. The tests were carried out with a blank containing all the compounds except the acetyl or butyryl thiocholine in order to take into account non-enzymatic reactions.
(§4) The percentage of inhibition due to the presence of the test compounds was calculated using the following expression: […]
(§5) wherein vi is the rate calculated in the presence of the inhibitor, and v0 is the enzymatic activity.
(§6) All the experiments were carried out in n=3.

[4] = molecular target: T2, BuChE from equine serum (eqBuChE) (Equus caballus, UniProt P81908); test: biochemical; format: biochemical
T2 construct: The BuChE freeze-dried from equine serum (eqBuChE, Sigma Aldrich); purchased Sigma Aldrich; host or cells: equine serum (natural source)
Method: as §1, §2, §3, §4, §5, §6

[5] = equine serum BuChE, Ellman method, 5 min pre-incubation at 25° C., n=3

T2 sequence (P81908 whole entry): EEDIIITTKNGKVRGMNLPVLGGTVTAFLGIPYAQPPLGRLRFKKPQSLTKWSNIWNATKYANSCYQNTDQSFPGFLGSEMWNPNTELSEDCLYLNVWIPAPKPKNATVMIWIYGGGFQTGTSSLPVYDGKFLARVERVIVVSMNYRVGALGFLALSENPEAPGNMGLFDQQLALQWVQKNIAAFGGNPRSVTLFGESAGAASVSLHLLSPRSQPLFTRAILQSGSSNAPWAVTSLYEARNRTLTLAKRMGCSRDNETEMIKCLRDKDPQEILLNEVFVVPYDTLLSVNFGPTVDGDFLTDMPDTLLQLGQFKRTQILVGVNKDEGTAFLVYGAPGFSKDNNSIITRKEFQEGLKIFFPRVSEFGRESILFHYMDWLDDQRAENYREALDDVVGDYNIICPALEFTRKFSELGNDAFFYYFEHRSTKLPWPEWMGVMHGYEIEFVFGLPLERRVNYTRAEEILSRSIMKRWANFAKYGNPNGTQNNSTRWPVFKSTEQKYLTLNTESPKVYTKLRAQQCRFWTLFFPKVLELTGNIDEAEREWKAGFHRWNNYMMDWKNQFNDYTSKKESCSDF
T1 sequence (P22303 32-617 isoform P22303-2 limits assumed): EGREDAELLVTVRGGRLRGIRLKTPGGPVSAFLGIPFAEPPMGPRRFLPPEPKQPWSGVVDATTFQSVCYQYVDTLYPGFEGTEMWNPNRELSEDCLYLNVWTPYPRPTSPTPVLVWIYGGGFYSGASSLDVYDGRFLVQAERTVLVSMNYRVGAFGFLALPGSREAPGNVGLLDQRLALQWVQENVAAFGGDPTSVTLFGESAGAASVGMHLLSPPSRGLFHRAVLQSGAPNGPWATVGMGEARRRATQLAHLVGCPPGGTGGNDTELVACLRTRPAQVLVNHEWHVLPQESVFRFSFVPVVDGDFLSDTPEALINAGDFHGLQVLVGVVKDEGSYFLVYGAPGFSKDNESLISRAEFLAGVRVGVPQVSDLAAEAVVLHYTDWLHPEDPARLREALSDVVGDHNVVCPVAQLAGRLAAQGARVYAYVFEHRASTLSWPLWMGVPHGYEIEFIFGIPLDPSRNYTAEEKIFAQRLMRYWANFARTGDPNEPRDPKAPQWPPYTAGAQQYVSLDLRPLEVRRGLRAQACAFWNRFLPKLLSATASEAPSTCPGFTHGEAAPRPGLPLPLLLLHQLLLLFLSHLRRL

Row | Molecule | Risk level [1] | ECHA's official data [2] | other results
1 | CC(C)(C)c1ccc(OP(=O)(Oc2ccccc2)Oc2ccc(C(C)(C)C)cc2)cc1 [Compound H, di(p-tertbutylphenyl)phenylphosphate] | 3 | – | –
2 | CCCCC(CC)COP(=O)(Oc1ccccc1)Oc1ccccc1 (stereo not shown) [Compound A, 2-ethylhexyl diphenylphosphate] | 4 | No CMR, no acute toxicity | –
3 | NP(=O)(Oc1ccccc1)Oc1ccccc1 [Compound K, Diphenyl phosphoroamidate] | 4 | – | –
4 | CCCCOC(=O)CC(SP(=S)(OCC(CC)CCCC)OCC(CC)CCCC)C(=O)OCCCC (stereo not shown) [Compound N, Dibutyl [[bis[(2-ethylhexyl)oxy]phosphinothioyl]thio]succinate] | ≥1 | No CMR, no acute toxicity | IC50 [3]: 33.1 µM; IC50 [4]: 19 µM
5 | CC(C)(C)c1ccc(OP(=O)(Oc2ccc(C(C)(C)C)cc2)Oc2ccc(C(C)(C)C)cc2)cc1 [Compound I2, Tri(p-tert-butylphenyl)phosphate] | 3 | – | –
6 | Saligenin cresyl phosphate [Compound J] | 4 | – | IC50 eqBuChE [4, 5]: 0.7 µg/mL
7 | isododecyl diphenylphosphate [Compound 4] | 0 | – | –
8 | Cc1ccccc1OP(=O)(Oc1ccccc1C)Oc1ccccc1C [Compound B, Tri(ortho-cresyl)phosphate] | 5 | – | –
9 | O=P(Oc1ccccc1)(Oc1ccccc1)Oc1ccccc1 [Compound I1, tri phenyl phosphate] | 4 | No CMR, no acute toxicity | IC50 [3]: 33.1 µM; IC50 [4]: 42.9 µM
10 | CC(C)COP(=O)(OCC(C)C)OCC(C)C [Compound L, Tri(isobutyl)phosphate] | 4 | No CMR, no acute toxicity | –
11 | Cc1cccc(OP(=O)(Oc2cccc(C)c2)Oc2cccc(C)c2)c1 [Compound C, Tri(meta-cresyl)phosphate] | 5 | – | –
12 | CCCCC(CC)COP(=O)(OCC(CC)CCCC)OCC(CC)CCCC (stereo not shown) [Compound M, Tris(2-ethylhexyl)phosphate] | ≥2 | No CMR, no acute toxicity | IC50 ([3]; human erythrocyte AChE, Ellman method, 5 min pre-incubation at 25° C., n=3, read-out: IC50 hAChE (converted)): 28.1 µM; IC50 ([4]; equine serum BuChE, Ellman method, 5 min pre-incubation at 25° C., n=3, read-out: IC50 eqBuChE (converted)): 279 µM
13 | Tri(4-isopropylbenzoate)phosphate [Compound G] | 2 | – | –
14 | Cc1ccc(OP(=O)(Oc2ccc(C)cc2)Oc2ccc(C)cc2)cc1 [Compound D, Tri(para-cresyl)phosphate] | 3 | – | –
15 | Trixylyl phosphate [Compound E] | ≥2 | PBT* Reprotoxic | –
16 | isononyl diphenylphosphate [Compound Q] | 4 | – | –
17 | O=P(Oc1c(F)cccc1F)(Oc1c(F)cccc1F)Oc1c(F)cccc1F [Compound F, Tri(2,6-difluorophenyl)phosphate] | ≥3 | – | –
18 | Tricresyl phosphate [Compound P] | 4 | PBT* Reprotoxic | IC50 hAChE ([3]; human erythrocyte AChE, Ellman method, 5 min pre-incubation at 25° C., n=3): 16.9 µg/mL; IC50 eqBuChE [4, 5]: 0.7 µg/mL
19 | CC(C)CCCCCCCOP(=O)(Oc1ccccc1)Oc1ccccc1 [Compound 1, isodecyl diphenylphosphate] | 0 | – | IC50 [3]: 38.4 µM; IC50 [4]: 93 µM
